Results: US20090220964A1, “METHODS FOR DIAGNOSING AND TREATING CANCERS VIA MANIPULATIONS OF A...PATHWAY” (UNIVERSITY OF CINCINNATI, priority 2006, published 2009)

Legend:
HIF-1α peptide = details: nuclear extracts from VHL(+) cells treated with 25 μM H2O2, collected after 4 h; 17-amino acid peptide
Procedure: (§1) The in vitro reactions of synthetic Rpb1 and HIF-1α peptides were performed using nuclear extracts from cells treated with 25 μM H2O2 and collected after 4 h.

Rpb1 peptides = details: nuclear extracts from 786-0 VHL(+) cells treated with 25 μM H2O2, collected after 4 h; 37- or 24-amino acid peptides
Procedure: as §1

Rpb1 = details: 786-0 VHL(+) cells, 25 μM H2O2, 15 min, nuclease digested extracts
Procedure: The antibody was used to investigate the role of oxidative stress in P1465 hydroxylation and pVHL-dependent ubiquitylation of Rpb1. […] The experiments were performed using RCC 786-0 cells, a well-characterized model of renal cell cancer, in which native pVHL is absent or stably reconstituted (in legend: 786-0 VHL(−) and VHL(+)). The cells were exposed briefly to a low concentration of H2O2 (25 μM, 15 min) to induce a generic oxidative stress, and assayed at the indicated time points after treatment.

pVHL = assay: Immunoblot of crude chromatin fractions after H2O2 treatment; details: cells expressing wild type pVHL, 25 μM H2O2, collected 4 h after treatment
Excerpt: In our experiments, we fractionated the pool of Rpb1 engaged on DNA using nuclease digestion and different salt extractions: the nuclear pellet remaining after standard extraction of nuclei with 0.3 M salt was digested with DNAse and micrococcal nuclease, and the digest was then extracted with the indicated concentrations of NaCl (FIG. 3). […] Two other antibodies against Rpb1 were also used: H14, and N20, which is specific for the N-terminal region of Rpb1, independent of its phosphorylation state.

[1] = system: deubiquitylating enzymes, isopeptidase T and ubiquitin C-terminal hydrolase L3; assay: Deubiquitylation of Rpb1 in chromatin extract by deubiquitylating enzymes; type: biochemical; details: second 0.5 M chromatin fraction of VHL(+) cells
Excerpt: Rpb1 was immunoprecipitated using H14 antibody from the second 0.5 M chromatin fraction, and the immunoprecipitated Rpb1 was immunobloted with BP and anti-ubiquitin antibodies (FIG. 3D). Clearly, the Rpb1 hyperphosphorylated on Ser-5 is also hydroxylated and ubiquitylated in response to oxidative stress and this response depends on the presence of functional pVHL (FIG. 1C). To confirm ubiquitylation of the hydroxylated and hyperphosphorylated Rpb1, the extracts from the second 0.5 M chromatin fraction of VHL(+) cells were incubated with deubiquitylating enzymes, isopeptidase T and ubiquitin C-terminal hydrolase L3. This treatment results in disappearance of the high migrating forms (FIG. 3E. lane 3) which is prevented by ubiquitin aldehyde, an inhibitor of deubiquitylating enzymes (FIG. 3E, lane 4).

Row | disappearance of high migrating (ubiquitylated) forms of Rpb1 [1] | Compound | HIF-1α peptide hydroxylation (capture of [35S]-labeled pVHL) (HIF-1α peptide) | Rpb1 peptide hydroxylation (capture of [35S]-labeled pVHL) (Rpb1 peptides) | hydroxylation of Rpb1 (Rpb1) | enrichment of pVHL in chromatin extract fractions (pVHL)
1 | – | OO [H2O2, hydrogen peroxide] | not affected | augmented peptide hydroxylation | induced persistent (lasting several hours) pVHL-dependent hydroxylation of Rpb1 | 3.5+/−1.1 fold increase
2 | prevented | ubiquitin aldehyde | – | – | – | –
